According to patent US9399646B2 (Genentech, Inc., priority 2010, dated 2016):

Columns and labels:
MCF-7 cells = assay: Breast cancer cell viability assay (CellTiter-Glo, 5 days); format: cell-based; details: 5 days' compound exposure; for IC50: Homo sapiens, MCF7, 120 h
In short: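 MCF-7 cells, 320 per well in RPMI with 10% FBS and 20 mM HEPES, adhered overnight, then exposed 5 days to an eleven-point semilog dilution (final 0.3-0.000003 μM). CellTiter-Glo luminescence read; % viability = (sample − cell-free background)/(untreated − background) × 100.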

ER-α in MCF-7 cells = molecular target: T1, ER-α in MCF-7 cells (Homo sapiens, UniProt P03372); assay: Breast cancer cell ER-α in cell western assay (SP1); format: cell-based; design: endogenous in cells; host or cells: MCF-7; details: 4 or 24 hr post compound addition; for Emax: MCF7, SP1 antibody, read-out: ER-α In Cell Western Assay (SP1) Max Response; for DC50: SP1 antibody, read-out: ER-α In Cell Western Assay (SP1) IC50
T1 sequence (P03372 1-595): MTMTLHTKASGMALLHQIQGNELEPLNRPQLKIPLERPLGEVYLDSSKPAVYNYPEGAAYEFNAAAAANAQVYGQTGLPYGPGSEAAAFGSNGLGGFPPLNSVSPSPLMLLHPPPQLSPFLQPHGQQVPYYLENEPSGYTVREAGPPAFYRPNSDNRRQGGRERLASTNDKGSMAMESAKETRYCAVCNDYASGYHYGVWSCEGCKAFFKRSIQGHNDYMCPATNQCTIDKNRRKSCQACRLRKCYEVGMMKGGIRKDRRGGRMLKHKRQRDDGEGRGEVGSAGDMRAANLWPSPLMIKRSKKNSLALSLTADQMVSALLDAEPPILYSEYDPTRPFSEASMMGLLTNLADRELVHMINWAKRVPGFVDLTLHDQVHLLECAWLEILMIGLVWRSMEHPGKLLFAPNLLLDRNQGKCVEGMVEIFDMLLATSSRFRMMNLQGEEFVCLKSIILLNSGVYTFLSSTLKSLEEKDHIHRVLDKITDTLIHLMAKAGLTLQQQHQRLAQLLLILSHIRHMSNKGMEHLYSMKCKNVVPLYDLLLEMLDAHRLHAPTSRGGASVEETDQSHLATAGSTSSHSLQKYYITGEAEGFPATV
In short: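 Fixed cells were immunostained with SP1 anti-ER antibody; ER signal (800 nm) was normalized to DRAQ5 DNA signal (700 nm) and expressed as % of untreated cells.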

Compound | MCF7 Viability Assay Max Response (MCF-7 cells) | IC50 (MCF-7 cells) [nM] | Emax (ER-α in MCF-7 cells) [%] | DC50 (ER-α in MCF-7 cells) [nM]
O=C(O)/C=C/c1ccc(/C(=C(\c2ccc(F)cc2Cl)C2CCC2)c2ccc3nccn3c2)cc1 [Compound 311, (E)-3-(4-((E)-2-(2-Chloro-4-fluorophenyl)-2-cyclobutyl-1-(imidazo[1,2-a]pyridin-6-yl)vinyl)phenyl)acrylic acid] | ++ (++ = a single % value ≧ 40%) | ≤ 100 | ≥ 40 | ≤ 100
CC/C(=C(/c1ccc(/C=C/C(=O)O)cc1)c1ccc2[nH]ncc2c1)c1ccc(-c2ccsc2)cc1 [Compound 386, (E)-3-(4-((E)-1-(1H-Indazol-5-yl)-2-(4-(thiophen-3-yl)phenyl)but-1-en-1-yl)phenyl)acrylic acid] | ++ (++ = a single % value ≧ 40%) | > 100 | ≥ 40 | ≤ 100
CC/C(=C(/c1ccc(/C=C/C(=O)NS(=O)(=O)Cc2ccccc2)cc1)c1ccc2[nH]ncc2c1)c1ccc(F)cc1Cl [Compound 429, (E)-N-(Benzylsulfonyl)-3-(4-((E)-2-(2-chloro-4-fluorophenyl)-1-(1H-indazol-5-yl)but-1-en-1-yl)phenyl)acrylamide] | ++ (++ = a single % value ≧ 40%) | ≤ 100 | ≥ 40 | ≤ 100
CC/C(=C(/c1ccc(/C=C/C(=O)O)cc1)c1ccc2[nH]ncc2c1)c1ccc(OCCOC)cc1 [Compound 339, (E)-3-(4-((E)-1-(1H-Indazol-5-yl)-2-(4-(2-methoxyethoxy)phenyl)but-1-en-1-yl)phenyl)acrylic acid] | ++ (++ = a single % value ≧ 40%) | ≤ 100 | ≥ 40 | ≤ 100
CC/C(=C(/c1ccc(/C=C/C(=O)O)cc1)c1ccc2[nH]ncc2c1)c1cccc(-c2ccccn2)c1 [Compound 390, (E)-3-(4-((E)-1-(1H-Indazol-5-yl)-2-(3-(pyridin-2-yl)phenyl)but-1-en-1-yl)phenyl)acrylic acid] | ++ (++ = a single % value ≧ 40%) | ≤ 100 | ≥ 40 | ≤ 100
CC/C(=C(/c1ccc(/C=C/C(=O)O)cc1)c1cc2cn[nH]c2cn1)c1ccccc1 [Compound 81, (E)-3-(4-((E)-2-Phenyl-1-(1H-pyrazolo[3,4-c]pyridin-5-yl)but-1-en-1-yl)phenyl)acrylic acid] | ++ (++ = a single % value ≧ 40%) | > 100 | ≥ 40 | > 100
CC/C(=C(/c1ccc(/C=C/C(=O)O)cc1)c1cc2ccccc2o1)c1ccc(F)cc1Cl [Compound 169, (E)-3-(4-((E)-1-(Benzofuran-2-yl)-2-(2-chloro-4-fluorophenyl)but-1-en-1-yl)phenyl)acrylic acid] | ++ (++ = a single % value ≧ 40%) | ≤ 100 | ≥ 40 | ≤ 100
CC/C(=C(/c1ccc(/C=C/C(=O)O)cc1)c1ccc2[nH]ncc2c1)c1cccc(Oc2ccc(C)nc2)c1 [Compound 382, (E)-3-(4-((E)-1-(1H-Indazol-5-yl)-2-(3-((6-methylpyridin-3-yl)oxy)phenyl)but-1-en-1-yl)phenyl)acrylic acid] | ++ (++ = a single % value ≧ 40%) | ≤ 100 | ≥ 40 | ≤ 100
CC/C(=C(/c1ccc(/C=C/C(=O)O)cc1)c1cnn2ccccc12)c1ccccc1 [Compound 148, (E)-3-(4-((E)-2-Phenyl-1-(pyrazolo[1,5-a]pyridin-3-yl)but-1-en-1-yl)phenyl)acrylic acid] | ++ (++ = a single % value ≧ 40%) | > 100 | ≥ 40 | > 100
CC/C(=C(/c1ccc(/C=C/C(=O)O)cc1)c1ccc2[nH]nnc2c1)c1ccccc1 [Compound 3, (E)-3-(4-((E)-1-(1H-Benzo[d][1,2,3]triazol-5-yl)-2-phenylbut-1-en-1-yl)phenyl)acrylic acid] | ++ (++ = a single % value ≧ 40%) | ≤ 100 | ≥ 40 | 
CC/C(=C(/c1ccc(OC[C@H](C)N2CC[C@@H](C)C2)cc1)c1ccc2[nH]ncc2c1)c1ccncc1Cl [Compound 331, 5-((E)-2-(3-Chloropyridin-4-yl)-1-(4-((S)-2-((R)-3-methylpyrrolidin-1-yl)propoxy)phenyl)but-1-en-1-yl)-1H-indazole] | ++ (++ = a single % value ≧ 40%) | ≤ 100 | ≥ 40 | ≤ 100
CC/C(=C(/c1ccc(/C=C/C(=O)O)cc1)c1ccc2[nH]ncc2c1)c1ccc(-c2ccccn2)cc1 [Compound 385, (E)-3-(4-((E)-1-(1H-Indazol-5-yl)-2-(4-(pyridin-2-yl)phenyl)but-1-en-1-yl)phenyl)acrylic acid] | ++ (++ = a single % value ≧ 40%) | > 100 | ≥ 40 | ≤ 100
CC/C(=C(/c1ccc(/C=C/C(=O)NC)cc1)c1ccc2[nH]ncc2c1)c1ccc(F)cc1Cl [Compound 420, (E)-3-(4-((E)-2-(2-Chloro-4-fluorophenyl)-1-(1H-indazol-5-yl)but-1-en-1-yl)phenyl)-N-methylacrylamide] | ++ (++ = a single % value ≧ 40%) | ≤ 100 | ≥ 40 | ≤ 100
CC/C(=C(/c1ccc(/C=C/C(=O)O)cc1)c1ccc2[nH]c(=O)oc2c1)c1ccccc1 [Compound 66, (E)-3-(4-((E)-1-(2-Oxo-2,3-dihydrobenzo[d]oxazol-6-yl)-2-phenylbut-1-en-1-yl)phenyl)acrylic acid] | ++ (++ = a single % value ≧ 40%) | ≤ 100 | ≥ 40 | 
CC/C(=C(/c1ccc(/C=C/C(=O)O)cc1)c1ccc2[nH]ncc2c1)c1ccc(Nc2ccccc2)cc1 [Compound 397, (E)-3-(4-((E)-1-(1H-Indazol-5-yl)-2-(4-(phenylamino)phenyl)but-1-en-1-yl)phenyl)acrylic acid] | ++ (++ = a single % value ≧ 40%) | ≤ 100 | ≥ 40 | ≤ 100
O=C(O)/C=C/c1ccc(/C(=C(\c2ccncc2Cl)C2CCC2)c2ccc3[nH]nc(F)c3c2)cc1 [Compound 307, (E)-3-(4-((E)-2-(3-Chloropyridin-4-yl)-2-cyclobutyl-1-(3-fluoro-1H-indazol-5-yl)vinyl)phenyl)acrylic acid] | ++ (++ = a single % value ≧ 40%) | ≤ 100 | ≥ 40 | ≤ 100
CC/C(=C(/c1ccc(/C=C/c2nn[nH]n2)cc1)c1ccc2[nH]ncc2c1)c1ccccc1 [Compound 442, 5-((E)-1-(4-((E)-2-(2H-Tetrazol-5-yl)vinyl)phenyl)-2-phenylbut-1-en-1-yl)-1H-indazole] | ++ (++ = a single % value ≧ 40%) | ≤ 100 | ≥ 40 | ≤ 100
CC/C(=C(/c1ccc2cc(C(=O)O)ccc2c1)c1ccc2[nH]ncc2c1)c1ccccc1 [Compound 449, (E)-6-(1-(1H-Indazol-5-yl)-2-phenylbut-1-en-1-yl)-2-naphthoic acid] | ++ (++ = a single % value ≧ 40%) | ≤ 100 | ≥ 40 | ≤ 100
O=C(/C=C/c1ccc(/C(=C(\c2ccccc2)C2CCC2)c2ccc3[nH]nc(F)c3c2)cc1)NCC(F)(F)F [Compound 415, (E)-3-(4-((E)-2-Cyclobutyl-1-(3-fluoro-1H-indazol-5-yl)-2-phenylvinyl)phenyl)-N-(2,2,2-trifluoroethyl)acrylamide] | ++ (++ = a single % value ≧ 40%) | ≤ 100 | ≥ 40 | ≤ 100
CC/C(=C(/c1ccc(/C=C/C(=O)O)cc1)c1ccc2[nH]ncc2c1)c1cc(Oc2ccccc2)ccc1C [Compound 297, (E)-3-(4-((E)-1-(1H-Indazol-5-yl)-2-(2-methyl-5-phenoxyphenyl)but-1-en-1-yl)phenyl)acrylic acid] | ++ (++ = a single % value ≧ 40%) | ≤ 100 | ≥ 40 | ≤ 100
CC/C(=C(/c1ccc(/C=C/C(=O)O)cc1)c1ccc2[nH]ncc2c1)c1cccs1 [Compound 23, (E)-3-(4-((E)-1-(1H-Indazol-5-yl)-2-(thiophen-2-yl)but-1-en-1-yl)phenyl)acrylic acid] | ++ (++ = a single % value ≧ 40%) | ≤ 100 | ≥ 40 | ≤ 100
